These results are taken from patent US10472347B2, “Aminopyrazine compounds with A2A antagonist properties” (Merck Sharp & Dohme Corp., priority 2014, dated 2019).

This experiment deals with T1, human A2a receptor (Homo sapiens, UniProt P29274).
T1 construct: purchased Perkin-Elmer RBHA2AM400UA; host or cells: HEK293 cells (membranes)
Nature of the experiment: A2a competition binding assay, Scintillation Proximity technology. The settings on record: membranes from HEK293 cells expressing human A2a receptor; Ki by Cheng-Prusoff equation. An outline of the steps:
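Membranes from HEK293 cells expressing human A2a, adenosine deaminase-treated, incubated 1 h at room temperature with compound (3000 to 0.15 nM) and 0.5 nM tritiated pyrazolotriazolopyrimidine radioligand on WGA SPA beads in Ca/Mg-free PBS + 10 mM MgCl2. Non-specific binding with 1 μM CGS15943; Ki by Cheng-Prusoff.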

T1 sequence (P29274 whole entry): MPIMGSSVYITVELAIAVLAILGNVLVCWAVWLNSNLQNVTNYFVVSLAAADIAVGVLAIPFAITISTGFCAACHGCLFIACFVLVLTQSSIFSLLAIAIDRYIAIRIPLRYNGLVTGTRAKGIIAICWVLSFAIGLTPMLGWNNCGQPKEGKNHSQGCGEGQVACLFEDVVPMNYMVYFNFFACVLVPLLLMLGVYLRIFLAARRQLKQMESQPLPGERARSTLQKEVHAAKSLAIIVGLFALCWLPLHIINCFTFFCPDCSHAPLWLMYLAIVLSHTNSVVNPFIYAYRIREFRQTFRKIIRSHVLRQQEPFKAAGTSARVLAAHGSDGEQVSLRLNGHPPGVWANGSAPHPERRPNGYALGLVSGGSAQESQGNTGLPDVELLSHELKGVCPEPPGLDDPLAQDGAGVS

As a reminder, the Ki is a measure of affinity in units of concentration, obtained from inhibition or displacement. A low value points to a stronger hold on the target. As to `Cc1nc(C(=O)N[C@@H]2c3ccccc3C[C@H]2O)c(N)nc1-c1ncco1` [Ex-159, 3-amino-N-[(1R,2R)-2-hydroxy-2,3-dihydro-1H-inden-1-yl]-6-methyl-5-(1,3-oxazol-2-yl)pyrazine-2-carboxamide], the Ki stood at 1.2 nM. Next, `Cc1nc(C(=O)NCc2nnc3n2CCC3)c(N)nc1-c1ncco1` [Ex-160, 3-amino-N-(6,7-dihydro-5H-pyrrolo[2,1-c][1,2,4]triazol-3-ylmethyl)-6-methyl-5-(1,3-oxazol-2-yl)pyrazine-2-carboxamide]: 264 nM; `Cc1nc(C(=O)NCc2n[nH]c3c2CCCCC3)c(N)nc1-c1ncco1` [Ex-161, 3-amino-N-(1,4,5,6,7,8-hexahydrocyclohepta[c]pyrazol-3-ylmethyl)-6-methyl-5-(1,3-oxazol-2-yl)pyrazine-2-carboxamide]: 0.293 nM; `Cc1nc(C(=O)NCc2nccc(F)c2C)c(N)nc1-c1ncco1` [Ex-162, 3-amino-N-[(4-fluoro-3-methylpyridin-2-yl)methyl]-6-methyl-5-(1,3-oxazol-2-yl)pyrazine-2-carboxamide]: 0.333 nM. Molecule `CCc1c(F)ccnc1CNC(=O)c1nc(C)c(-c2ncco2)nc1N` [Ex-163, 3-amino-N-[(3-ethyl-4-fluoropyridin-2-yl)methyl]-6-methyl-5-(1,3-oxazol-2-yl)pyrazine-2-carboxamide] came in with a Ki of 0.197 nM.

For the molecule `Cc1nc(C(=O)NCc2nc3ccccc3[nH]2)c(N)nc1-c1ncco1` [Ex-164, 3-amino-N-(1H-benzimidazol-2-ylmethyl)-6-methyl-5-(1,3-oxazol-2-yl)pyrazine-2-carboxamide], the Ki stood at 1.29 nM. Compared with the last molecule, the Ki is about 6.5-fold higher. Next, `CCn1ncnc1CNC(=O)c1nc(C)c(-c2ncco2)nc1N` [Ex-166, 3-amino-N-[(1-ethyl-1H-1,2,4-triazol-5-yl)methyl]-6-methyl-5-(1,3-oxazol-2-yl)pyrazine-2-carboxamide]: 0.599 nM; `CCOc1cccnc1CNC(=O)c1nc(C)c(-c2ncco2)nc1N` [Ex-167, 3-amino-N-[(3-ethoxypyridin-2-yl)methyl]-6-methyl-5-(1,3-oxazol-2-yl)pyrazine-2-carboxamide]: 0.158 nM.

In turn, `Cc1nc(C(=O)NCc2ncc(F)cc2C2CC2)c(N)nc1-c1ncco1` [Ex-169, 3-amino-N-[(3-cyclopropyl-5-fluoropyridin-2-yl)methyl]-6-methyl-5-(1,3-oxazol-2-yl)pyrazine-2-carboxamide] displayed a Ki of 0.375 nM.

With `Cc1nc(C(=O)NCc2nn(C)cc2C2CC2)c(N)nc1-c1ncco1` [Ex-170, 3-amino-N-[(4-cyclopropyl-1-methyl-1H-pyrazol-3-yl)methyl]-6-methyl-5-(1,3-oxazol-2-yl)pyrazine-2-carboxmamide], the Ki worked out at 0.482 nM.

For `Cc1nc(C(=O)NCc2nccnc2F)c(N)nc1-c1ncco1` [Ex-172, 3-amino-N-[(3-fluoropyrazin-2-yl)methyl]-6-methyl-5-(1,3-oxazol-2-yl)pyrazine-2-carboxamide], the Ki came to 3.05 nM. For `CCOc1cccc(F)c1CNC(=O)c1nc(C)c(-c2ncco2)nc1N` [Ex-173, 3-amino-N-(2-ethoxy-6-fluorobenzyl)-6-methyl-5-(1,3-oxazol-2-yl)pyrazine-2-carboxamide] the value was 0.191 nM. `Cc1nc(C(=O)NCc2nn(C)c3c2CCC3)c(N)nc1-c1ncco1` [Ex-174, 3-amino-6-methyl-N-[(1-methyl-1,4,5,6-tetrahydrocyclopenta[c]pyrazol-3-yl)methyl]-5-(1,3-oxazol-2-yl)pyrazine-2-carboxamide]: the inhibition constant (Ki) is 2.96 nM.

In turn, `Cc1cncnc1CNC(=O)c1nc(C)c(-c2ncco2)nc1N` [Ex-175, 3-amino-6-methyl-N-[(5-methylpyrimidin-4-yl)methyl]-5-(1,3-oxazol-2-yl)pyrazine-2-carboxamide] gave an inhibition constant Ki of 6.31 nM. For the molecule `Cc1nc(C(=O)NCc2nccc3ccccc23)c(N)nc1-c1ncco1` [Ex-178, 3-amino-N-(isoquinolin-1-ylmethyl)-6-methyl-5-(1,3-oxazol-2-yl)pyrazine-2-carboxamide], the inhibition constant (Ki) was 0.217 nM. For `CCc1cccnc1CNC(=O)c1nc(C)c(-c2ncco2)nc1N` [Ex-179, 3-amino-N-[(3-ethylpyridin-2-yl)methyl]-6-methyl-5-(1,3-oxazol-2-yl)pyrazine-2-carboxamide], the affinity, expressed as Ki, was 0.1 nM.

Molecule `Cc1nc(C(=O)NCc2nccc(F)c2C2CC2)c(N)nc1-c1ncco1` [Ex-180, 3-amino-N-[(3-cyclopropyl-4-fluoropyridin-2-yl)methyl]-6-methyl-5-(1,3-oxazol-2-yl)pyrazine-2-carboxamide] yielded a Ki of 0.168 nM. Molecule `Cc1nc(C(=O)NCc2cccc3c2ncn3CC(F)(F)F)c(N)nc1-c1ncco1` [Ex-181, 3-amino-6-methyl-5-(1,3-oxazol-2-yl)-N-{[1-(2,2,2-trifluoroethyl)-1H-benzimidazol-4-yl]methyl}pyrazine-2-carboxamide] displayed a Ki of 1.3 nM. This Ki is about 7.7-fold higher than that of the molecule before. Next, `Cc1nc(C(=O)NCc2ncc(C(F)(F)F)cc2C2CC2)c(N)nc1-c1ncco1` [Ex-182, 3-amino-N-{[3-cyclopropyl-5-(trifluoromethyl)pyridin-2-yl]methyl}-6-methyl-5-(1,3-oxazol-2-yl)pyrazine-2-carboxamide]: 2.7 nM. In turn, `Cc1cc(C(F)(F)F)cnc1CNC(=O)c1nc(C)c(-c2ncco2)nc1N` [Ex-183, 3-amino-6-methyl-N-{[3-methyl-5-(trifluoromethyl)pyridin-2-yl]methyl}-5-(1,3-oxazol-2-yl)pyrazine-2-carboxamide] came in with a Ki of 6.72 nM. In turn, `Cc1nc(C(=O)NCc2nccnc2C2CC2)c(N)nc1-c1ncco1` [Ex-184, 3-amino-N-[(3-cyclopropyl-pyrazin-2-yl)methyl]-6-methyl-5-(1,3-oxazol-2-yl)pyrazine-2-carboxamide] yielded an inhibition constant (Ki) of 0.208 nM. Compared with the last molecule, the Ki is about 32-fold lower.

With `Cc1cnc(CNC(=O)c2nc(C)c(-c3ncco3)nc2N)nc1` [Ex-185, 3-amino-6-methyl-N-[(5-methylpyrimidin-2-yl)methyl]-5-(1,3-oxazol-2-yl)pyrazine-2-carboxamide], the Ki was 4.25 nM. `COc1cccc(F)c1CNC(=O)c1nc(C)c(-c2ncco2)nc1N` [Ex-186, 3-amino-N-(2-fluoro-6-methoxybenzyl)-6-methyl-5-(1,3-oxazol-2-yl)pyrazine-2-carboxamide] gave a Ki of 0.181 nM. For `CCc1nccnc1CNC(=O)c1nc(C)c(-c2ncco2)nc1N` [Ex-187, 3-amino-N-[(3-ethylpyrazin-2-yl)methyl]-6-methyl-5-(1,3-oxazol-2-yl)pyrazine-2-carboxamide] the value was 0.449 nM; for `Cc1nc(C(=O)NCc2ncnn2C(C)C)c(N)nc1-c1ncco1` [Ex-188, 3-amino-6-methyl-N-{[1-(1-methylethyl)-1H-1,2,4-triazol-5-yl]methyl}-5-(1,3-oxazol-2-yl)pyrazine-2-carboxamide], 0.29 nM; for `Cc1nc(C(=O)NCc2cccc3c2ncn3C(C)C)c(N)nc1-c1ncco1` [Ex-189], 1.03 nM. Take `Cc1nc2c(o1)CN(CCNC(=O)c1nc(C)c(-c3ncco3)nc1N)CC2` [Ex-190, 3-amino-6-methyl-N-[2-(2-methyl-6,7-dihydro[1,3]oxazolo[5,4-c]pyridin-5-(4H)-yl)ethyl]-5-(1,3-oxazol-2-yl)pyrazine-2-carboxamide]: the inhibition constant Ki came out at 12.3 nM. Compared with the last molecule, the Ki is about 12-fold higher.
